Measurements: US10988455B2, “1,2,4-triazine-4-amine derivatives” (Heptares Therapeutics Limited, priority 2010, dated 2021)

Assays:
[1] = target: human adenosine A2a receptor (Homo sapiens (Human), UniProt P29274); assay: HEK293-hA2a [3H]-ZM241385 binding assay (Test A); settings: HEK293 membranes, 1 nM [3H]ZM241385, 25° C., 1 h
Description: (§1) All test compounds were prepared as a stock solution of 10 mM in 100% DMSO.

[2] = target: human adenosine A1 receptor (Homo sapiens (Human), UniProt P30542); assay: CHO-hA1 [3H]DPCPX binding assay (Test A); settings: CHO membranes, 1 nM [3H]DPCPX, 25° C., 1 h; for Ki: read-out: pKi A1 (converted)
Description: as §1

[3] = tested on: haloperidol-induced catalepsy in rats; assay: Catalepsy reversal test (Test B); format: in vivo, Sprague-Dawley rats; settings: for reversal of cataleptic behavior in rats pre-treated with haloperidol: dose of 1 mg/kg p.o.
Description: The dopamine D2 receptor antagonist, haloperidol, induces Parkinsonism in humans and induces motor effects in rats such as catalepsy. There is considerable evidence that adenosine A2A receptor antagonists reverse haloperidol-induced motor effects in preclinical studies. […] The present study determines the ability of haloperidol-induced catalepsy in rats to be reversed by novel A2A receptor antagonists.
Haloperidol (0.82 mg/kg, i.p.; 150 min pre-test time) induces significant cataleptic behaviour in rats (average score 3.1). The effect of selected compounds of the invention (2-10 mg/kg or 0.3-3 mg/kg, p.o.; 120 min pre-test time) on catalepsy was established by administration of said compounds to rats pre-treated with haloperidol as described above.
Details of a similar test may be found in, for example, Hodgson et al., J. Pharmacol. Exp. Ther. 330, 2009.

Sequence of human adenosine A1 receptor (P30542 whole entry): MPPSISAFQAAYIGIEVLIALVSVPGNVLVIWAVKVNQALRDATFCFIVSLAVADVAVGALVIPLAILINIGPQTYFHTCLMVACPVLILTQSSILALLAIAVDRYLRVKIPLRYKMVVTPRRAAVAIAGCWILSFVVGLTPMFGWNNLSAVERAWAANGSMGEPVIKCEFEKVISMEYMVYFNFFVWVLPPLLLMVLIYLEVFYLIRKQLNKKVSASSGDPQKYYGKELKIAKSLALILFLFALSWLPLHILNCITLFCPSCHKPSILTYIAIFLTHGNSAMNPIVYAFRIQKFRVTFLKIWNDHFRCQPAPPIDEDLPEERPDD
Sequence of human adenosine A2a receptor (P29274 whole entry): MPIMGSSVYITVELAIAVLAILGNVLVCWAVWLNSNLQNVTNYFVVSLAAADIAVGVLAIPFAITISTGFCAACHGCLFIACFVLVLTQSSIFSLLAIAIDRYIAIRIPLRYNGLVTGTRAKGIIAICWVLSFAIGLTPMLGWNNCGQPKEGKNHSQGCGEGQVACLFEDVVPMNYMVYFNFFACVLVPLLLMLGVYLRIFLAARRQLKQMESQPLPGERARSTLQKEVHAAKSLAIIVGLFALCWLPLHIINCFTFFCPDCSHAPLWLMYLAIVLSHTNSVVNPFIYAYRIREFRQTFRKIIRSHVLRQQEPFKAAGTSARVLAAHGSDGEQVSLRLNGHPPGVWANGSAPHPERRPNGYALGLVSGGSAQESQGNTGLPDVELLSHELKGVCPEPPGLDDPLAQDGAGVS

pKi A2a [1] | pKi A1 [2] | Compound | other results
7.19 | 8.20 | Nc1nnc(-c2ccc3occc3c2)c(-c2ccccc2)n1 [1(xxxv), 6-(1-benzofuran-5-yl)-5-phenyl-1,2,4-triazin-3-amine] | –
7.31 | 5.37 | CC1CCCN(c2nnc(N)nc2-c2ccccc2)C1 (stereo not drawn) [2(iii), 6-(3-Methylpiperidin-1-yl)-5-phenyl-1,2,4-triazin-3-amine] | –
7.79 | – | CC1CN(c2nnc(N)nc2-c2ccccc2)CC(C)O1 (stereo not drawn) [2(iv), 6-(2,6-Dimethylmorpholin-4-yl)-5-phenyl-1,2,4-triazin-3-amine] | Ki [2]: > 10000 nM
7.39 | – | CC1(C)CCCN(c2nnc(N)nc2-c2ccccc2)C1 [2(vi), 6-(3,3-Dimethylpiperidin-1-yl)-5-phenyl-1,2,4-triazin-3-amine] | Ki [2]: > 10000 nM
5.07 | 6.71 | Cc1csc(Nc2nnc(N)nc2-c2ccccc2)n1 [2(xxii)] | –
5.53 | 7.49 | Nc1nnc(N2CCOC(CO)C2)c(-c2ccccc2)n1 (stereo not drawn) [2(xxv)] | –
7.17 | – | Nc1nnc(Oc2ccccc2)c(-c2ccccc2)n1 [3(i), 6-Phenoxy-5-phenyl-1,2,4-triazin-3-amine] | Ki [2]: > 10000 nM
5.96 | – | Nc1nnc(Oc2cccc(C(F)(F)F)c2)c(-c2ccccc2)n1 [3(v), 5-Phenyl-6-[3-(trifluoromethyl)phenoxy]-1,2,4-triazin-3-amine] | –
7.41 | 7.15 | Nc1nnc(-n2ccc(=O)cc2)c(-c2ccccc2)n1 [3(xvi)] | –
6.22 | 8.07 | Cc1ncccc1Oc1nnc(N)nc1-c1ccccc1 [3(xxi)] | –
7.39 | 8.46 | Cn1nc(C(F)(F)F)cc1Oc1nnc(N)nc1-c1ccccc1 [3(xxiv)] | –
5.82 | 7.00 | Cc1ccc(Sc2nnc(N)nc2-c2ccccc2)cc1 [3(xxxii)] | –
7.77 | 7.62 | Cc1cn(-c2nnc(N)nc2-c2ccccc2)cc(C)c1=O [5(ix), 1-(3-Amino-5-phenyl-1,2,4-triazin-6-yl)-3,5-dimethylpyridin-4(1H)-one] | –
6.73 | 8.69 | CC(=O)Nc1cc(-c2nnc(N)nc2-c2ccccc2)ccc1O [5(vii), N-[5-(3-Amino-5-phenyl-1,2,4-triazin-6-yl)-2-hydroxyphenyl]acetamide] | –
– | 7.26 | [2H]C([2H])([2H])c1cc(-c2nnc(N)nc2-c2ccccc2)cc(C)n1 [5(viii), 6-(2-Methyl-6-d3-methylpyridin-4-yl)-5-phenyl-1,2,4-triazin-3-amine] | –
7.76 | 6.90 | Cc1cc(-c2nnc(N)nc2-c2ccc(F)cc2)cc(N2CCC2)n1 [5(xi), 6-[2-(azetidin-1-yl)-6-methylpyridin-4-yl]-5-(4-fluorophenyl)-1,2,4-triazin-3-amine] | –
– | 7.60 | Cc1cc(-c2nnc(N)nc2-c2ccccc2)cc(C(F)(F)F)n1 [Example 1(ccix), 6-[2-methyl-6-(trifluoromethyl)pyridin-4-yl]-5-phenyl-1,2,4-triazin-3-amine] | reversal of cataleptic behavior in rats pre-treated with haloperidol ([3]; 120 min pre-test time): statistically significant

The remaining lines, values behind:

Compound | pKi A2a [1] | pKi A1 [2] | other results
Nc1nnc(-c2cc(Cl)cc(Cl)c2)c(-c2ccccn2)n1 [1(cciv)] | 7.21 | 5.97 | –
CN(C)c1cc(-c2nnc(N)nc2-c2ccccc2)ccn1 [1(ccxi)] | 7.71 | 8.74 | –
Cc1cc(-c2nnc(N)nc2-c2ccccc2)cc(Br)n1 [1(ccxii)] | 8.66 | 7.68 | reversal of cataleptic behavior in rats pre-treated with haloperidol ([3]; 120 min pre-test time): statistically significant
Cc1cc(-c2nnc(N)nc2-c2ccccc2)cc(C)[n+]1[O-] [1(ccxiii)] | 7.51 | 7.12 | –
Nc1nnc(-c2cc(Cl)cc(C(F)(F)F)c2)c(-c2ncccn2)n1 [1(ccxviii)] | 6.58 | 5.25 | –
Cc1cc(-c2nnc(N)nc2-c2cc(F)cc(F)c2)cc(C)n1 [1(cliv)] | – | 6.77 | reversal of cataleptic behavior in rats pre-treated with haloperidol ([3]; 120 min pre-test time): statistically significant
Cc1cc(-c2nnc(N)nc2-c2ccc(Cl)cc2)cc(C)n1 [1(clix)] | 7.81 | 7.07 | reversal of cataleptic behavior in rats pre-treated with haloperidol ([3]; 120 min pre-test time): statistically significant
Nc1nnc(-c2cc(Cl)nc(C(F)(F)F)c2)c(-c2ccc(F)cc2)n1 [1(clxix)] | 8.40 | 6.99 | reversal of cataleptic behavior in rats pre-treated with haloperidol ([3]; 120 min pre-test time): statistically significant
Cc1cc(-c2nnc(N)nc2-c2ccccc2)cc(C(F)F)n1 [1(clxxix)] | 8.62 | 7.52 | reversal of cataleptic behavior in rats pre-treated with haloperidol ([3]; 120 min pre-test time): statistically significant
Cc1cc(-c2nnc(N)nc2-c2ccccc2F)cc(Cl)n1 [1(clxxvi)] | 8.03 | 6.93 | –
Nc1nnc(-c2cc(Cl)nc(C(F)F)c2)c(-c2ccccc2)n1 [1(clxxx)] | 8.90 | 7.76 | –
Nc1nnc(-c2cc(Cl)nc(CF)c2)c(-c2ccccc2)n1 [1(clxxxi)] | 8.71 | 7.17 | –
Cc1cc(-c2nnc(N)nc2-c2ccccc2F)cc(C(F)(F)F)n1 [1(cxci)] | 8.26 | 7.36 | reversal of cataleptic behavior in rats pre-treated with haloperidol ([3]; 120 min pre-test time): statistically significant
Cc1cc(-c2nnc(N)nc2-c2ccc(F)cc2)cc(C(F)(F)F)n1 [1(cxciii)] | – | 6.93 | reversal of cataleptic behavior in rats pre-treated with haloperidol ([3]; 120 min pre-test time): statistically significant
Nc1nnc(-c2cnn(Cc3ccccc3)c2)c(-c2ccccc2)n1 [1(cxxxiv)] | 5.62 | 7.62 | –
Nc1nnc(-c2cccc(C(F)(F)F)c2)c(-c2ccccc2)n1 [1(ix), 5-Phenyl-6-[3-(trifluoromethyl)phenyl]-1,2,4-triazin-3-amine] | – | 7.81 | –

Compound | pKi A2a [1] | pKi A1 [2] | other results
Cc1cc(Cl)cc(-c2nnc(N)nc2-c2ccccc2)c1 [1(li)] | 8.66 | 6.87 | reversal of cataleptic behavior in rats pre-treated with haloperidol ([3]; 120 min pre-test time): statistically significant
Cc1cc(-c2nnc(N)nc2-c2ccccc2)cc(Cl)n1 [1(lvi)] | 8.22 | 7.33 | reversal of cataleptic behavior in rats pre-treated with haloperidol ([3]; 120 min pre-test time): statistically significant
Nc1nnc(-c2ccc3ccccc3c2)c(-c2ccccc2)n1 [1(lxxii)] | 6.99 | 8.52 | –
Nc1nnc(-c2ccnc(C3CC3)c2)c(-c2ccccc2)n1 [1(lxxix)] | 7.45 | 9.35 | –
CC1(C)C=C(c2nnc(N)nc2-c2ccccc2)CC(C)(C)O1 [1(lxxx)] | 6.61 | 6.01 | –
Cc1cc(-c2nnc(N)nc2-c2cccc(F)c2)cc(Cl)n1 [1(xc)] | 8.07 | 7.26 | reversal of cataleptic behavior in rats pre-treated with haloperidol ([3]; 120 min pre-test time): statistically significant
Nc1nnc(-c2cc(Cl)cc(Cl)c2)c(-c2ccccc2)n1 [1(xiii), 6-(3,5-Dichlorophenyl)-5-phenyl-1,2,4-triazin-3-amine] | – | – | reversal of cataleptic behavior in rats pre-treated with haloperidol ([3]; 120 min pre-test time): statistically significant
Cc1cc(-c2nnc(N)nc2-c2ccccc2)cc(C)c1O [1(xli)] | – | 7.83 | –
Nc1nnc(-c2ccnc(Cl)c2)c(-c2ccccc2)n1 [1(xliii)] | 7.74 | 8.54 | ED50, reversal of cataleptic behaviour in rats pre-treated with haloperidol ([3]; p.o., 120 min pre-test time, haloperidol 0.82 mg/kg i.p.): 0.27 mg/kg
Nc1nnc(-c2ccc(F)c(Cl)c2)c(-c2ccccc2)n1 [1(xv), 6-(3-Chloro-4-fluorophenyl)-5-phenyl-1,2,4-triazin-3-amine] | 7.11 | 8.45 | –
Nc1nnc(-c2ccc3cc[nH]c3c2)c(-c2ccccc2)n1 [1(xviii), 6-(1H-Indol-6-yl)-5-phenyl-1,2,4-triazin-3-amine] | 6.75 | 6.91 | –
COc1cc(OC)cc(-c2nnc(N)nc2-c2ccccc2)c1 [1(xxiv), 6-(3,5-Dimethoxyphenyl)-5-phenyl-1,2,4-triazin-3-amine] | 6.97 | 8.03 | –
Nc1nnc(-c2cc(Cl)cc(C3CC3)c2)c(-c2ccccc2)n1 [4(ii), 6-(3-Chloro-5-cyclopropylphenyl)-5-phenyl-1,2,4-triazin-3-amine] | – | – | Ki ([1]; read-out: pKi A2a (converted)): 12.9 nM; Ki [2]: 37.2 nM
Nc1nnc(-c2cccc(Cl)c2)c(-c2ccccc2)n1 [Example 1(vi), 6-(3-Chlorophenyl)-5-phenyl-1,2,4-triazin-3-amine] | – | – | ED50 ([3]; Rattus norvegicus, p.o., 120 min pre-test time, haloperidol 0.82 mg/kg i.p., read-out: ED50, reversal of cataleptic behaviour in rats pre-treated with haloperidol): 9.8 mg/kg
Cc1cc(-c2nnc(N)nc2-c2ccc(F)cc2)cc(Cl)n1 [Example 1(xcv), 6-(2-chloro-6-methylpyridin-4-yl)-5-(4-fluorophenyl)-1,2,4-triazin-3-amine] | – | – | reversal of cataleptic behavior in rats pre-treated with haloperidol ([3]; 120 min pre-test time): statistically significant
O=C(CCCN1CCC(O)(c2ccc(Cl)cc2)CC1)c1ccc(F)cc1 [Haloperidol, haloperidol, reference compound] | – | – | catalepsy average score (maximum score of 4) ([3]; haloperidol 0.82 mg/kg i.p., 150 min pre-test time): 3.1
